# Results published in ChEMBL document CHEMBL3758137 (Eur J Med Chem, 2016).
# What was measured:
# [1] = target: Hepatocyte growth factor receptor (Homo sapiens, UniProt P08581); test: Inhibition of recombinant c-Met (unknown origin) using poly (Glu,Tyr)4:1 as substrate after 60 mins by ELISA
# [2] = Antiproliferative activity against human EBC1 cells after 72 hrs by SRB assay; details: EBC-1, 72 h
# [3] = Solubility of compound in HBSS/HEPES buffer at pH 6.8 by nephelometric analysis in presence of 0.1% BSA; assay type: physicochemical; details: HBSS/HEPES buffer with 0.1% BSA
# [4] = Solubility of compound in HBSS/HEPES buffer at pH 7.4 by nephelometric analysis in presence of 0.1% BSA; assay type: physicochemical; details: HBSS/HEPES buffer with 0.1% BSA
# [5] = Solubility of compound in TRIS buffer by nephelometric analysis in presence of 0.1% BSA; assay type: physicochemical; details: TRIS buffer with 0.1% BSA
# [6] = Apparent permeability from apical to basolateral side in human Caco2 cells after 35 to 95 mins by LC-MS/MS analysis; assay type: ADME, cell-based; details: Caco-2
# [7] = Apparent permeability from basolateral to apical side in human Caco2 cells after 35 to 95 mins by LC-MS/MS analysis; assay type: ADME, cell-based; details: Caco-2
# [8] = system: Liver microsome; test: Intrinsic clearance in human liver microsomes at 0.1 uM after 7 to 60 mins by LC-MS/MS analysis; assay type: ADME
# [9] = Intrinsic clearance in mouse liver microsomes at 0.1 uM after 7 to 60 mins by LC-MS/MS analysis; assay type: ADME
# [10] = system: Liver microsome; test: Intrinsic clearance in rat liver microsomes at 0.1 uM after 7 to 60 mins by LC-MS/MS analysis; assay type: ADME
# [11] = Antitumor activity against human EBC1 cells xenografted in nude mouse assessed as tumor growth inhibition at 50 mg/kg, po qd administered for 21 days relative to control; assay type: functional; details: EBC-1, po, 504 h, read-out: TGI
# Chain of Hepatocyte growth factor receptor (P08581 whole entry): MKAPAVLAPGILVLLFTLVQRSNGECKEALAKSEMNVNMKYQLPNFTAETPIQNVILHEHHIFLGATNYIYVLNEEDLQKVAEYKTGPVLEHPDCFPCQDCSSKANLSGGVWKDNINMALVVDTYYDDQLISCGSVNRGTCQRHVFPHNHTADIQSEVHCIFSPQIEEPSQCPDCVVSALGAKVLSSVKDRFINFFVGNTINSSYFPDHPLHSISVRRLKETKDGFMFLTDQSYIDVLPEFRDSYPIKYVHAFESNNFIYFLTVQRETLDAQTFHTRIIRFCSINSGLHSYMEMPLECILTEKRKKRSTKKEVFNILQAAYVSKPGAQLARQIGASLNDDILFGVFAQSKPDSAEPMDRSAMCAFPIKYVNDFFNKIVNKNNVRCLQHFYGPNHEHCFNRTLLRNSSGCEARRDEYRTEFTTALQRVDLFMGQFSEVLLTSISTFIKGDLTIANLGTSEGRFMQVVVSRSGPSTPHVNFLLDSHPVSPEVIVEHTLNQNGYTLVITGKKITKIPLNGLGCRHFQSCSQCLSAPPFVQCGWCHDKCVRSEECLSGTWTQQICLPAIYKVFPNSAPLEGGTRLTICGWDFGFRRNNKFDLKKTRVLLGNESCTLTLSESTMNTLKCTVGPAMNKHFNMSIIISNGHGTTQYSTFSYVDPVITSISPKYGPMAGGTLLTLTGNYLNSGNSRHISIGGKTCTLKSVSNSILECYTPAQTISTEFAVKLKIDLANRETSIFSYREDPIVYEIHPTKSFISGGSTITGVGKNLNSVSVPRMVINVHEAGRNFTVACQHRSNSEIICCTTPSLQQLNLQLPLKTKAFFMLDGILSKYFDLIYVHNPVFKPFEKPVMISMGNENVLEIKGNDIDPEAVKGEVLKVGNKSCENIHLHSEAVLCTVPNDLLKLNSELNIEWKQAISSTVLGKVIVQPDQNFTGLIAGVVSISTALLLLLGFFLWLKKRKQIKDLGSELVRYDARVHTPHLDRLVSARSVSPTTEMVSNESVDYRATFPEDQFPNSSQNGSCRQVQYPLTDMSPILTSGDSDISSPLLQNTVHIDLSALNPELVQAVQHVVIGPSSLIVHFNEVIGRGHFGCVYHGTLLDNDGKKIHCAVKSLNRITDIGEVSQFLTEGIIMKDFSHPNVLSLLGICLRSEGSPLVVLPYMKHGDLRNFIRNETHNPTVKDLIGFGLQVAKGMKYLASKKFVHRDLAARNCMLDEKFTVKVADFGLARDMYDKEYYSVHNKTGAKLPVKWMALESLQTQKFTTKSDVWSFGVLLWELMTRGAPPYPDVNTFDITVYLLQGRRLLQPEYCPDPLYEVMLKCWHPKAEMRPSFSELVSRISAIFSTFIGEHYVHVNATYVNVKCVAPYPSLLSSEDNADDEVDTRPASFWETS
SMILES,IC50 [2] [µM],other results
Cn1cc(-c2ccc(=O)n(Cc3cccc(Nc4nc5ccccc5[nH]4)c3)n2)cn1,> 0.2,IC50 [1]: > 0.1 µM
Cn1cc(-c2ccc(Nc3cccc(Cn4nc(-c5cnn(C)c5)ccc4=O)c3)nc2)cn1,> 0.2,IC50 [1]: > 0.1 µM
Cn1cc(-c2ccc(=O)n(Cc3cccc(Nc4ncn(C)n4)c3)n2)cn1,> 0.2,IC50 [1]: > 0.1 µM
Cn1cc(-c2ccc(=O)n(Cc3cccc(Nc4ncccn4)c3)n2)cn1,> 0.2,IC50 [1]: > 0.1 µM
Cn1cc(-c2cnc(Nc3cccc(Cn4nc(-c5ccc(Cl)c(C(F)(F)F)c5)ccc4=O)c3)nc2)cn1,0.065,–
CNC(=O)c1ccc(-c2ccc(=O)n(Cc3cccc(Nc4ncc(-c5cnn(C)c5)cn4)c3)n2)cc1F,0.0313,solubility kinetic [3]: 2 µM; solubility kinetic [4]: 2 µM; solubility kinetic [5]: 2 µM; Papp A→B [6]: 1.7 ×10⁻⁶ cm/s; Papp B→A [7]: 17.4 ×10⁻⁶ cm/s; CLH [8]: 28 mL/min/g; CLH [9]: 50 mL/min/g; CLH [10]: 64 mL/min/g
CN1CCN(Cc2cnc(Nc3cccc(Cn4nc(-c5cnn(C)c5)ccc4=O)c3)nc2)CC1,> 0.2,IC50 [1]: > 0.1 µM
Cn1cc(-c2cnc(Nc3cccc(Cn4nc(-c5ccc(S(C)(=O)=O)cc5)ccc4=O)c3)nc2)cn1,0.0734,–
Cn1cc(-c2ccnc(Nc3cccc(Cn4nc(-c5cnn(C)c5)ccc4=O)c3)n2)cn1,> 0.2,IC50 [1]: > 0.1 µM
Cn1cc(-c2cnc(Nc3cccc(Cn4nc(-c5cccc(S(C)(=O)=O)c5)ccc4=O)c3)nc2)cn1,> 0.2,–
Cn1cc(-c2cnc(Nc3cccc(Cn4nc(-c5cnn(CCO)c5)ccc4=O)c3)nc2)cn1,0.0998,–
Cn1cc(-c2cnc(Nc3cccc(Cn4nc(-c5ccncc5)ccc4=O)c3)nc2)cn1,> 0.2,–
CN(C)C(=O)c1ccc(-c2ccc(=O)n(Cc3cccc(Nc4ncc(-c5cnn(C)c5)cn4)c3)n2)cc1F,0.102,–
Cn1cc(-c2ccc(=O)n(Cc3cccc(Nc4ncc(-c5cccnc5)cn4)c3)n2)cn1,> 0.2,–
Cn1cc(-c2cnc(Nc3cccc(Cn4nc(-c5ccc(C(=O)O)c(F)c5)ccc4=O)c3)nc2)cn1,> 0.2,–
Cn1cc(-c2cnc(Nc3cccc(Cn4nc(-c5cccc(C#N)c5)ccc4=O)c3)nc2)cn1,0.108,–
Cn1cc(-c2cnc(Nc3cccc(Cn4nc(-c5cccc(C(=O)O)c5)ccc4=O)c3)nc2)cn1,> 0.2,–
Cn1cc(-c2ccc(=O)n(Cc3cccc(Nc4ncc(-c5cncs5)cn4)c3)n2)cn1,> 0.2,–
COCCOc1cnc(Nc2cccc(Cn3nc(-c4cnn(C)c4)ccc3=O)c2)nc1,> 0.2,–
CC(C)n1cc(-c2cnc(Nc3cccc(Cn4nc(-c5cnn(C)c5)ccc4=O)c3)nc2)cn1,0.0946,–
CN1CCC(n2cc(-c3cnc(Nc4cccc(Cn5nc(-c6cnn(C)c6)ccc5=O)c4)nc3)cn2)CC1,0.065,–
Cn1cc(-c2ccc(=O)n(Cc3cccc(Nc4ncc(-c5cnn(CCO)c5)cn4)c3)n2)cn1,0.0487,–
Cn1cc(-c2cnc(Nc3cccc(Cn4nc(-c5cccnc5)ccc4=O)c3)nc2)cn1,> 0.2,–
C[C@@H](Oc1cc(-c2cnn(C3CCNCC3)c2)cnc1N)c1c(Cl)ccc(F)c1Cl [CRIZOTINIB],0.019,inhibition in vivo at 50 mg/kg [11]: 108%
